Test results from US20220040129A1, “TREATMENT OF HYPERAMMONEMIA IN PATIENTS WITH RENAL INSUFFICIENCY” (RECORDATI S.p.A., priority 2019, published 2022).
Where two headings read alike, the source gives them in different places.

Key:
[1] = Adverse reactions in retrospective studies of patients with NAGS deficiency, PA, MMA or IVA; type: in vivo, human; conditions: Total Population = 80
Text: Sixty-one percent (61%) of patients were male and 39% of patients were female. In patients with PA, MMA or IVA (48% male and 52% female patients), 57% of decompensation episodes occurred during the first 4 weeks after birth (neonates), and 43% of decompensation episodes occurred beyond the neonatal period. The median age at the start of the decompensation episode was 12 days.

[2] = CARIV-A-001 Part A: single ascending IV doses over 20 minutes in healthy subjects; type: in vivo, human; conditions: for CL renal: plasma and urine
Procedure: This study was conducted in healthy male or female volunteers, at a single site to assess the safety and PK profile of an IV formulation of Carbaglu and to determine the absolute bioavailability of the current marketed oral formulation of Carbaglu.
The levels of CGA in plasma and urine were analysed using a fully validated method, which included LC-MS/MS analysis. The PK data were analysed based on a non-compartmental model. A model-based approach was implemented for the characterization of the PK properties of the IV formulation in order to estimate the level of PK exposure after different doses administered with different duration of infusion. […] The PK parameters were determined using SAS (version 9.3), and modelling of the PK data was performed using NONMEM (version 7.3, ICON Solutions). PART A: Mono-Centre, Randomized, Successive Groups, Double-Blind, Placebo-Controlled Study in Healthy Male and Female Subjects
Each cohort included a minimum of 3 and maximum of 5 subjects of each of the two genders.
Three loading doses of CGA over 20 minutes were tested by IV administration, 3.5 mg/kg, 5.0 mg/kg and 7.5 mg/kg. For each of these three doses, 6 subjects were administered CGA and 2 received the placebo.
Plasma concentrations of CGA were measured at 18 timepoints, including a sample preceding the start of the administration, and then between 10 minutes and 48 hours following the initiation of the IV infusion.
The PK analysis of Carbaglu was conducted by using standard non-compartmental approach.

Compound: NC(=O)N[C@@H](CCC(=O)O)C(=O)O [carglumic acid, N-carbamoyl-L-glutamic acid]
- Adverse reaction Abdominal pain, Number of Patients (N) (%) [1]: 4 (5%) N (%)
- Adverse reaction Anemia, Number of Patients (N) (%) [1]: 4 (5%) N (%)
- Adverse reaction Anorexia, Number of Patients (N) (%) [1]: 2 (3%) N (%)
- Adverse reaction Diarrhea, Number of Patients (N) (%) [1]: 5 (5%) N (%)
- Adverse reaction Dysgeusia, Number of Patients (N) (%) [1]: 2 (3%) N (%)
- Adverse reaction Ear infection, Number of Patients (N) (%) [1]: 3 (4%) N (%)
- Adverse reaction Headache, Number of Patients (N) (%) [1]: 3 (4%) N (%)
- Adverse reaction Hemoglobin decreased, Number of Patients (N) (%) [1]: 2 (3%) N (%)
- Adverse reaction Hyperhidrosis, Number of Patients (N) (%) [1]: 2 (3%) N (%)
- Adverse reaction Infection, Number of Patients (N) (%) [1]: 3 (4%) N (%)
- Adverse reaction Influenza, Number of Patients (N) (%) [1]: 2 (3%) N (%)
- Adverse reaction Jaundice, Number of Patients (N) (%) [1]: 2 (3%) N (%)
- Adverse reaction Nasopharyngitis, Number of Patients (N) (%) [1]: 3 (4%) N (%)
- Adverse reaction Nervous system disorder, Number of Patients (N) (%) [1]: 2 (3%) N (%)
- Adverse reaction Pneumonia, Number of Patients (N) (%) [1]: 2 (3%) N (%)
- Adverse reaction Pyrexia, Number of Patients (N) (%) [1]: 7 (9%) N (%)
- Adverse reaction Rash, Number of Patients (N) (%) [1]: 2 (3%) N (%)
- Adverse reaction Somnolence, Number of Patients (N) (%) [1]: 2 (3%) N (%)
- Adverse reaction Tonsillitis, Number of Patients (N) (%) [1]: 4 (5%) N (%)
- Adverse reaction Transaminase increased, Number of Patients (N) (%) [1]: 2 (3%) N (%)
- Adverse reaction Vomiting, Number of Patients (N) (%) [1]: 6 (8%) N (%)
- Adverse reaction Weight decreased, Number of Patients (N) (%) [1]: 2 (3%) N (%)
- Plasma levels observed, up to ([2]; IV administration over 20 minutes, healthy volunteers): up to 26,500 ng/mL
- Dose dependence of AUCinf, AUClast and Cmax ([2]; IV doses in the range of 3.5 mg/kg to 7.5 mg/kg): increase linearly
- Percent of dose excreted in urine ([2]; IV over 20 minutes, stable across the doses evaluated): ~75%
- Concentration up to which linearity of PK was shown ([2]; Part A): up to 26.5 μg/mL
- Dose excreted in the urine as parent compound over 24 hours ([2]; after IV administration): 75 % of the dose
- CL renal ([2]; both sexes, human, iv, 3.5 mg/kg, IV over 20 minutes, 3.5 mg/kg, read-out: Renal Clearance (RCl), Mean): 4.33 mL/min/kg
- CL renal ([2]; both sexes, human, iv, 3.5 mg/kg, IV over 20 minutes, 3.5 mg/kg, read-out: Renal Clearance (RCl), Median): 4.17 mL/min/kg
- CL renal ([2]; both sexes, human, iv, 3.5 mg/kg, IV over 20 minutes, 3.5 mg/kg, read-out: Renal Clearance (RCl), Range): 3.33 to 5 mL/min/kg
- CL renal ([2]; both sexes, human, iv, 5 mg/kg, IV over 20 minutes, 5.0 mg/kg, read-out: Renal Clearance (RCl), Mean): 3.83 mL/min/kg
- CL renal ([2]; both sexes, human, iv, 5 mg/kg, IV over 20 minutes, 5.0 mg/kg, read-out: Renal Clearance (RCl), Median): 3.67 mL/min/kg
- CL renal ([2]; both sexes, human, iv, 5 mg/kg, IV over 20 minutes, 5.0 mg/kg, read-out: Renal Clearance (RCl), Range): 3.17 to 5.17 mL/min/kg
- CL renal ([2]; both sexes, human, iv, 7.5 mg/kg, IV over 20 minutes, 7.5 mg/kg, read-out: Renal Clearance (RCl), Mean): 4.33 mL/min/kg
- CL renal ([2]; both sexes, human, iv, 7.5 mg/kg, IV over 20 minutes, 7.5 mg/kg, read-out: Renal Clearance (RCl), Median): 4.17 mL/min/kg
- CL renal ([2]; both sexes, human, iv, 7.5 mg/kg, IV over 20 minutes, 7.5 mg/kg, read-out: Renal Clearance (RCl), Range): 3.5 to 5.33 mL/min/kg
- CL renal ([2]; both sexes, human, iv, IV over 20 minutes, stable across doses, read-out: Renal clearance (converted)): ~4.17 mL/min/kg
- CL renal ([2]; both sexes, human, iv, after IV administration, read-out: Renal clearance, median): 265 mL/min
- CL renal ([2]; both sexes, human, iv, after IV administration, read-out: Renal clearance, range): 183 to 467 mL/min
- AUC(0-t) ([2]; both sexes, human, plasma, iv, 3.5 mg/kg, IV over 20 minutes, 3.5 mg/kg, read-out: AUC24h, Mean): 9850 ng·h/mL
- AUC(0-t) ([2]; both sexes, human, plasma, iv, 3.5 mg/kg, IV over 20 minutes, 3.5 mg/kg, read-out: AUC24h, Median): 9690 ng·h/mL
- AUC(0-t) ([2]; both sexes, human, plasma, iv, 3.5 mg/kg, IV over 20 minutes, 3.5 mg/kg, read-out: AUC24h, Range): 8990 to 11000 ng·h/mL
- AUC(0-inf) ([2]; both sexes, human, plasma, iv, 3.5 mg/kg, IV over 20 minutes, 3.5 mg/kg, read-out: AUCinf, Mean): 11000 ng·h/mL
- AUC(0-inf) ([2]; both sexes, human, plasma, iv, 3.5 mg/kg, IV over 20 minutes, 3.5 mg/kg, read-out: AUCinf, Median): 10900 ng·h/mL
- AUC(0-inf) ([2]; both sexes, human, plasma, iv, 3.5 mg/kg, IV over 20 minutes, 3.5 mg/kg, read-out: AUCinf, Range): 9740 to 12500 ng·h/mL
- AUC(0-t) ([2]; both sexes, human, plasma, iv, 3.5 mg/kg, IV over 20 minutes, 3.5 mg/kg, read-out: AUClast-timepoint, Mean): 10200 ng·h/mL
- AUC(0-t) ([2]; both sexes, human, plasma, iv, 3.5 mg/kg, IV over 20 minutes, 3.5 mg/kg, read-out: AUClast-timepoint, Median): 10100 ng·h/mL
- AUC(0-t) ([2]; both sexes, human, plasma, iv, 3.5 mg/kg, IV over 20 minutes, 3.5 mg/kg, read-out: AUClast-timepoint, Range): 8990 to 11500 ng·h/mL
- clearance ([2]; both sexes, human, plasma, iv, 3.5 mg/kg, IV over 20 minutes, 3.5 mg/kg, read-out: Clearance (Cl), Mean): 5.33 mL/min/kg
- clearance ([2]; both sexes, human, plasma, iv, 3.5 mg/kg, IV over 20 minutes, 3.5 mg/kg, read-out: Clearance (Cl), Median): 5.33 mL/min/kg
- clearance ([2]; both sexes, human, plasma, iv, 3.5 mg/kg, IV over 20 minutes, 3.5 mg/kg, read-out: Clearance (Cl), Range): 4.67 to 6 mL/min/kg
- Cmax ([2]; both sexes, human, plasma, iv, 3.5 mg/kg, IV over 20 minutes, 3.5 mg/kg, read-out: Cmax, Mean): 11400 ng/mL
- Cmax ([2]; both sexes, human, plasma, iv, 3.5 mg/kg, IV over 20 minutes, 3.5 mg/kg, read-out: Cmax, Median): 11400 ng/mL
- Cmax ([2]; both sexes, human, plasma, iv, 3.5 mg/kg, IV over 20 minutes, 3.5 mg/kg, read-out: Cmax, Range): 10700 to 12300 ng/mL
- half-life ([2]; both sexes, human, plasma, iv, 3.5 mg/kg, IV over 20 minutes, 3.5 mg/kg, read-out: T1/2, Mean): 1240 min
